Measured values taken from patent US20190085024A1, “Alpha-Ketoamide Inhibitors Of Cysteine Proteases” (Phelix Therapeutics, priority 2017, published 2019).
Where two headings read alike, the source gives them in different places.

Legend:
Cathepsin L = Cathepsin L (Homo sapiens, UniProt P07711); assay: Cathepsin L enzyme assay; format: biochemical; conditions: Ki by Morrison equation; pH 5.5, substrate Z-Phe-Arg-Amc; read-out: Cat L
Source text: Two wells contained DMSO only for controls.
Velocity was converted to μM/sec.

Cat S = Cat S (Homo sapiens, UniProt P25774); assay: Cat S inhibition; format: biochemical
Chain of Cat S (P25774 115-331): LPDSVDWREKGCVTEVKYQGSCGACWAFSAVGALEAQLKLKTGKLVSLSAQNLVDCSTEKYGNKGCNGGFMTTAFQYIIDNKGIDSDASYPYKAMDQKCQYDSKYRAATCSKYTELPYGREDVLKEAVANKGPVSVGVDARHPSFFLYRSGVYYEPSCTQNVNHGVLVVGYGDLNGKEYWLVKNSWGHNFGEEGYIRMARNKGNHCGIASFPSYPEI

Cat K = target: T1, Cat K (Homo sapiens, UniProt P43235); assay: Cat K inhibition; format: biochemical
T1 sequence (P43235 115-329): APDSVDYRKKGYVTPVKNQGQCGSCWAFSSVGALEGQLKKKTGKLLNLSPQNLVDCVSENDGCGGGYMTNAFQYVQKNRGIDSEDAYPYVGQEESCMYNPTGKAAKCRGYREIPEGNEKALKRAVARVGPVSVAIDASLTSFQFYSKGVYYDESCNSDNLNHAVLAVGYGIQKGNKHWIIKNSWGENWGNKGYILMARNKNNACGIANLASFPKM

Calpain = Calpain enzyme assay; format: biochemical; conditions: Ki by Morrison equation; pH 7.5, 5 mM CaCl2
[1] = system: EBOV WT (Ebola Wild Type); assay: microbe, parasite or virus in culture; format: cell-based; conditions: read-out: EBOV WT (μM) (Ebola Wild Type)
MERS WT = assay: microbe, parasite or virus in culture; format: cell-based
Cathepsin B = Cathepsin B (Homo sapiens, UniProt P07858); assay: Cathepsin B enzyme assay; conditions: Cat B (μM), Ki by Morrison equation; pH 6.0, substrate Z-Phe-Arg-Amc
[2] = Middle East respiratory syndrome-related coronavirus, read-out: MERS WT (μM)

Chain of Cathepsin L (P07711 114-333, species assumed): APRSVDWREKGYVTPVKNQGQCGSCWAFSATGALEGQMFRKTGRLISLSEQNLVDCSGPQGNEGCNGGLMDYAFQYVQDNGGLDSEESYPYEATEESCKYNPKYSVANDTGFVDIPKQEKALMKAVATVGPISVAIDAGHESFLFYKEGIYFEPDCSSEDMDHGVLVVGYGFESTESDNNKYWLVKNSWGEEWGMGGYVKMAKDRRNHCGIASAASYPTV

In the case of `CC(NC(=O)C(Cc1cccc2ccccc12)NC(=O)Cc1ccccc1)C(=O)C(=O)NC(Cc1ccccc1)C(=O)NC(C)(C)C(N)=O` (centres unmarked) [PHELIX205, N-(1-((1-amino-2-methyl-1-oxopropan-2-yl)amino)-1-oxo-3-phenylpropan-2-yl)-3-(3-(napthalen-1-yl)-2-(2-phenylacetamido)propanamido)-2-oxobutanamide], the Ki (Cathepsin L) is reported as 70.4 nM, the Ki (Cat S) is reported as 229 nM and the Ki (Cat K) is reported as 6410 nM. For the same compound, the Ki (Calpain) was 12500 nM, the IC50 ([1]; Zaire ebolavirus) was 21.9 µM and the IC50 (MERS WT; [2]) was over 10 µM. For the same compound, the Ki (Cathepsin B) was 0.977 µM.

In the case of `CC(NC(=O)C(Cc1ccccc1F)NC(=O)Cc1ccccc1)C(=O)C(=O)NC(Cc1ccccc1)C(=O)NC(C)(C)C(N)=O` (centres unmarked) [PHELIX207, N-(1-((1-amino-2-methyl-1-oxopropan-2-yl)amino)-1-oxo-3-phenylpropan-2-yl)-3-(3-(2-fluorophenyl)-2-(2-phenylacetamido)propanamido)-2-oxobutanamide], the Ki (Cathepsin L) is reported as 15 nM, the Ki (Cat S) is reported as 2.6 nM and the Ki (Cat K) is reported as 430 nM. The Ki (Calpain) was over 10000 nM, the IC50 ([1]; Zaire ebolavirus) was 8.59 µM and the IC50 (MERS WT; [2]) was 195 µM. For the same compound, the Ki (Cathepsin B) was 0.187 µM.

Work on `CC(NC(=O)C(Cc1ccc(F)cc1)NC(=O)Cc1ccccc1)C(=O)C(=O)NC(Cc1ccccc1)C(=O)NC(C)(C)C(N)=O` (centres unmarked) [PHELIX208, N-(1-((1-amino-2-methyl-1-oxopropan-2-yl)amino)-1-oxo-3-phenylpropan-2-yl)-3-(3-(4-fluorophenyl)-2-(2-phenylacetamido)propanamido)-2-oxobutanamide] yielded a Ki (Cathepsin L) of 15.4 nM, a Ki (Cat S) of 3.73 nM and a Ki (Cat K) of 1920 nM. For the same compound, the Ki (Calpain) was over 10000 nM, the IC50 ([1]; Zaire ebolavirus) was 8.15 µM and the IC50 (MERS WT; [2]) was 184 µM. The Ki (Cathepsin B) was 0.42 µM.

In the case of `CC(NC(=O)C(Cc1cccc(C(F)(F)F)c1)NC(=O)Cc1ccccc1)C(=O)C(=O)NC(Cc1ccccc1)C(=O)NC(C)(C)C(N)=O` (centres unmarked) [PHELIX209, N-(1-((1-amino-2-methyl-1-oxopropan-2-yl)amino)-1-oxo-3-phenylpropan-2-yl)-2-oxo-3-(2-(2-phenylacetamido)-3-(3-(trifluoromethyl)phenyl)propanamido)butanamide], the Ki (Cathepsin L) is reported as 66.3 nM, the Ki (Cat S) is reported as 39.9 nM and the Ki (Cat K) is reported as over 10000 nM. For the same compound, the Ki (Calpain) was over 10000 nM, the IC50 ([1]; Zaire ebolavirus) was 7.87 µM and the IC50 (MERS WT; [2]) was over 10 µM. For the same compound, the Ki (Cathepsin B) was 0.234 µM.

With `CC(NC(=O)C(Cc1cccc(F)c1)NC(=O)Cc1ccccc1)C(=O)C(=O)NC(Cc1ccccc1)C(=O)NC(C)(C)C(N)=O` (centres unmarked) [PHELIX212, N-(1-((1-amino-2-methyl-1-oxopropan-2-yl)amino)-1-oxo-3-phenylpropan-2-yl)-3-(3-(3-fluorophenyl)-2-(2-phenylacetamido)propanamido)-2-oxobutanamide] the Ki (Cathepsin L) was 20.3 nM, the Ki (Cat S) was 13.7 nM and the Ki (Cat K) was 1200 nM. For the same compound, the Ki (Calpain) was over 10000 nM, the IC50 ([1]; Zaire ebolavirus) was 7.41 µM and the IC50 (MERS WT; [2]) was 139 µM. The Ki (Cathepsin B) was 0.231 µM.

In the case of `CC(C)CC(NC(=O)C(=O)C(C)NC(=O)C(Cc1ccccc1)NC(=O)Cc1ccccc1)C(=O)NC(C)(C)C(N)=O` (centres unmarked) [PHELIX214, N-(1-amino-2-methyl-1-oxopropan-2-yl)-4-methyl-2-(2-oxo-3-(3-phenyl-2-(2-phenylacetamido)propanamido)butanamido)pentanamide], the Ki (Cathepsin L) is reported as 281 nM, the Ki (Cat S) is reported as 39.8 nM and the Ki (Cat K) is reported as 2460 nM. For the same compound, the Ki (Calpain) was 85400 nM, the IC50 ([1]; Zaire ebolavirus) was 24.2 µM and the IC50 (MERS WT; [2]) was over 10 µM. The Ki (Cathepsin B) was 5.79 µM.

`CC(NC(=O)C(Cc1ccccc1)NC(=O)Cc1ccccc1)C(=O)C(=O)NC(Cc1ccccc1)C(=O)NC(Cc1ccc2ccccc2c1)C(N)=O` (centres unmarked) [PHELIX220, N-(1-((1-amino-3-(naphthalen-2-yl)-1-oxopropan-2-yl)amino)-1-oxo-3-phenylpropan-2-yl)-2-oxo-3-(3-phenyl-2-(2-phenylacetamido)propanamido)butanamide] showed a Ki (Cathepsin L) of 0.05 nM, a Ki (Cat S) of 0.22 nM and a Ki (Cat K) of 21.9 nM. For the same compound, the Ki (Calpain) was over 10000 nM, the IC50 [1] was 0.06 µM and the IC50 (MERS WT; read-out: MERS WT) was 3.15 µM. The Ki (Cathepsin B) was 5.1 µM.

Compound `CC(NC(=O)C(Cc1ccccc1)NC(=O)Cc1ccccc1)C(=O)C(=O)NC(Cc1ccccc1)C(=O)NC(Cc1ccc(C(C)(C)C)cc1)C(N)=O` (centres unmarked) [PHELIX221, N-(1-((1-amino-3-(4-(tert-butyl)phenyl)-1-oxopropan-2-yl)amino)-1-oxo-3-phenylpropan-2-yl)-2-oxo-3-(3-phenyl-2-(2-phenylacetamido)propanamido)butanamide] has a Ki (Cathepsin L) of 0.02 nM, a Ki (Cat S) of 0.19 nM and a Ki (Cat K) of 13.6 nM. The Ki (Calpain) was over 10000 nM, the IC50 ([1]; Zaire ebolavirus) was 0.03 µM and the IC50 (MERS WT; [2]) was 1.32 µM. For the same compound, the Ki (Cathepsin B) was 3.57 µM.

In the case of `CC(NC(=O)C(Cc1ccccc1)NC(=O)c1cccc(F)c1)C(=O)C(=O)NC(Cc1ccccc1)C(=O)NC(C)(C)C(N)=O` (centres unmarked) [PHELIX222, N-(1-((4-((1-((1-amino-2-methyl-1-oxopropan-2-yl)amino)-1-oxo-3-phenylpropan-2-yl)amino)-3,4-dioxobutan-2-yl)amino)-1-oxo-3-phenylpropan-2-yl)-3-fluorobenzamide], the Ki (Cathepsin L) is reported as 25 nM, the Ki (Cat S) is reported as 17.7 nM and the Ki (Cat K) is reported as 3320 nM. It also gave a Ki (Calpain) of over 10000 nM, an IC50 ([1]; Zaire ebolavirus) of 5.19 µM and an IC50 (MERS WT; [2]) of 151 µM. For the same compound, the Ki (Cathepsin B) was 1.83 µM.

`CC(NC(=O)C(Cc1ccccc1)NC(=O)c1ccccc1)C(=O)C(=O)NC(Cc1ccccc1)C(=O)NC(C)(C)C(N)=O` (centres unmarked) [PHELIX223, N-(1-((4-((1-((1-amino-2-methyl-1-oxopropan-2-yl)amino)-1-oxo-3-phenylpropan-2-yl)amino)-3,4-dioxobutan-2-yl)amino)-1-oxo-3-phenylpropan-2-yl)benzamide] gave a Ki (Cathepsin L) of 19.9 nM, a Ki (Cat S) of 4.44 nM and a Ki (Cat K) of 281 nM. The Ki (Calpain) was over 10000 nM, the IC50 ([1]; Zaire ebolavirus) was 5.61 µM and the IC50 (MERS WT; [2]) was 35.3 µM. It also gave a Ki (Cathepsin B) of 0.246 µM.

`Cc1ccccc1CC(=O)NC(Cc1ccccc1)C(=O)NC(C)C(=O)C(=O)NC(Cc1ccccc1)C(=O)NC(C)(C)C(N)=O` (centres unmarked) [PHELIX226, N-(1-((1-amino-2-methyl-1-oxopropan-2-yl)amino)-1-oxo-3-phenylpropan-2-yl)-2-oxo-3-(3-phenyl-2-(2-(o-tolyl)acetamido)propanamido)butanamide] gave a Ki (Cathepsin L) of 9.54 nM, a Ki (Cat K) of 1770 nM and a Ki (Calpain) of over 10000 nM. It also gave an IC50 ([1]; Zaire ebolavirus) of 5.09 µM, an IC50 (MERS WT; [2]) of 114 µM and a Ki (Cathepsin B) of 0.273 µM.

For `CC(NC(=O)C(Cc1ccccc1)NC(=O)Cc1ccccc1)C(=O)C(=O)NC(Cc1cc2ccccc2[nH]1)C(=O)NC(C)(C)C(N)=O` (centres unmarked) [PHELIX232, N-(1-((1-amino-2-methyl-1-oxopropan-2-yl)amino)-3-(1H-indol-2-yl)-1-oxopropan-2-yl)-2-oxo-3-(3-phenyl-2-(2-phenylacetamido)propanamido)butanamide], the Ki (Cathepsin L) was 213 nM, the Ki (Cat S) was 147 nM and the Ki (Cat K) was 1840 nM. For the same compound, the Ki (Calpain) was over 10000 nM and the Ki (Cathepsin B) was 19.9 µM.

For `CCC(C)C(NC(=O)C(Cc1ccccc1)NC(=O)Cc1ccccc1)C(=O)C(=O)NC(Cc1ccccc1)C(=O)NC(C)(C)C(N)=O` (centres unmarked) [PHELIX233, N-(1-((1-amino-2-methyl-1-oxopropan-2-yl)amino)-1-oxo-3-phenylpropan-2-yl)-4-methyl-2-oxo-3-(3-phenyl-2-(2-phenylacetamido)propanamido)hexanamide], the Ki (Cathepsin L) was 8.09 nM, the Ki (Cat S) was 2.55 nM and the Ki (Cat K) was 354 nM. For the same compound, the Ki (Calpain) was over 10000 nM and the Ki (Cathepsin B) was 0.223 µM.

Compound `CC(NC(=O)C(Cc1ccccc1)NC(=O)Cc1ccccc1)C(=O)C(=O)NC(CCCNC(=N)N)C(=O)NC(C)(C)C(N)=O` (centres unmarked) [PHELIX234, N-(1-amino-2-methyl-1-oxopropan-2-yl)-5-guanidino-2-(2-oxo-3-(3-phenyl-2-(2-phenylacetamido)propanamido)butanamido)pentanamide] has a Ki (Cathepsin L) of 129 nM, a Ki (Cat S) of 78.1 nM and a Ki (Cat K) of 1080 nM. It also gave a Ki (Calpain) of over 10000 nM and a Ki (Cathepsin B) of over 10 µM.

Compound `CC(NC(=O)[C@H](Cc1ccccc1)NC(=O)C(c1ccccc1)c1ccccc1)C(=O)C(=O)N[C@@H](Cc1ccccc1)C(=O)NC(C)(C)C(N)=O` (stereo partly drawn) [PHELIX237, N-((S)-1-((1-amino-2-methyl-1-oxopropan-2-yl)amino)-1-oxo-3-phenylpropan-2-yl)-3-((S)-2-(2,2-diphenylacetamido)-3-phenylpropanamido)-2-oxobutanamide] has a Ki (Cathepsin L) of 3.36 nM, a Ki (Cat S) of 0.8 nM and a Ki (Cat K) of 226 nM. The Ki (Calpain) was over 10000 nM and the Ki (Cathepsin B) was 0.0211 µM.

Compound `CC(C)CC(NC(=O)OCc1ccccc1)C(=O)NC(C)C(=O)C(=O)NCC(=O)NC(Cc1ccccc1)C(=O)NCCc1ccccc1` (centres unmarked) [PHELIX238, benzyl (5-benzyl-12,17-dimethyl-4,7,10,11,14-pentaoxo-1-phenyl-3,6,9,13-tetraazaoctadecan-15-yl)carbamate] has a Ki (Cathepsin L) of 3.88 nM, a Ki (Cat S) of 20.3 nM and a Ki (Cat K) of 27.7 nM. It also gave a Ki (Calpain) of 91.1 nM and a Ki (Cathepsin B) of 0.313 µM.

`CC(NC(=O)C(Cc1ccccc1)NC(=O)Cc1ccccc1)C(=O)C(=O)NC(Cc1ccccc1)C(=O)NC(C)(C)C(N)=O` (centres unmarked) [PHELIX249, N-(1-((1-amino-2-methyl-1-oxopropan-2-yl)amino)-1-oxo-3-phenylpropan-2-yl)-2-oxo-3-(3-phenyl-2-(2-phenylacetamido)propanamido)butanamide] was tested, and the Ki (Cathepsin L) was 101 nM, the Ki (Cat S) was 6.81 nM and the Ki (Cat K) was 736 nM. The Ki (Calpain) was over 10000 nM, the IC50 (MERS WT; [2]) was over 30 µM and the Ki (Cathepsin B) was 0.349 µM.
